Experimental data reported in paper PMC6770320 (Cancers, 2019).

Legend:
[1] = biological target: T1, multidrug resistance protein 2 (MRP2) (Homo sapiens, UniProt Q92887); experiment: inhibition of oxaliplatin-stimulated ([…]) vanadate-sensitive ATPase in membrane vesicles; […] reduction at […]; assay type: cell-based
T1 construct: gene ABCC2; membrane vesicles from Sf9 cells overexpressing human MRP2

[2] = biological target: T1, multidrug resistance protein 2 (MRP2); experiment: inhibition of oxaliplatin-stimulated ([…]) vanadate-sensitive ATPase in membrane vesicles; […] reduction at […], no apparent effect at […]; assay type: cell-based
[3] = biological target: T1, multidrug resistance protein 2 (MRP2); experiment: vanadate-sensitive ATPase stimulation in Sf9/MRP2 membrane vesicles, with control vesicles; assay type: biochemical
From the text: vanadate-sensitive ATPase stimulation in Sf9/MRP2 membrane vesicles, with control vesicles on multidrug resistance protein 2 (MRP2) | oxaliplatin stimulated the vanadate-sensitive MRP2 ATPase activities in a concentration-dependent manner

T1 sequence (Q92887 whole entry): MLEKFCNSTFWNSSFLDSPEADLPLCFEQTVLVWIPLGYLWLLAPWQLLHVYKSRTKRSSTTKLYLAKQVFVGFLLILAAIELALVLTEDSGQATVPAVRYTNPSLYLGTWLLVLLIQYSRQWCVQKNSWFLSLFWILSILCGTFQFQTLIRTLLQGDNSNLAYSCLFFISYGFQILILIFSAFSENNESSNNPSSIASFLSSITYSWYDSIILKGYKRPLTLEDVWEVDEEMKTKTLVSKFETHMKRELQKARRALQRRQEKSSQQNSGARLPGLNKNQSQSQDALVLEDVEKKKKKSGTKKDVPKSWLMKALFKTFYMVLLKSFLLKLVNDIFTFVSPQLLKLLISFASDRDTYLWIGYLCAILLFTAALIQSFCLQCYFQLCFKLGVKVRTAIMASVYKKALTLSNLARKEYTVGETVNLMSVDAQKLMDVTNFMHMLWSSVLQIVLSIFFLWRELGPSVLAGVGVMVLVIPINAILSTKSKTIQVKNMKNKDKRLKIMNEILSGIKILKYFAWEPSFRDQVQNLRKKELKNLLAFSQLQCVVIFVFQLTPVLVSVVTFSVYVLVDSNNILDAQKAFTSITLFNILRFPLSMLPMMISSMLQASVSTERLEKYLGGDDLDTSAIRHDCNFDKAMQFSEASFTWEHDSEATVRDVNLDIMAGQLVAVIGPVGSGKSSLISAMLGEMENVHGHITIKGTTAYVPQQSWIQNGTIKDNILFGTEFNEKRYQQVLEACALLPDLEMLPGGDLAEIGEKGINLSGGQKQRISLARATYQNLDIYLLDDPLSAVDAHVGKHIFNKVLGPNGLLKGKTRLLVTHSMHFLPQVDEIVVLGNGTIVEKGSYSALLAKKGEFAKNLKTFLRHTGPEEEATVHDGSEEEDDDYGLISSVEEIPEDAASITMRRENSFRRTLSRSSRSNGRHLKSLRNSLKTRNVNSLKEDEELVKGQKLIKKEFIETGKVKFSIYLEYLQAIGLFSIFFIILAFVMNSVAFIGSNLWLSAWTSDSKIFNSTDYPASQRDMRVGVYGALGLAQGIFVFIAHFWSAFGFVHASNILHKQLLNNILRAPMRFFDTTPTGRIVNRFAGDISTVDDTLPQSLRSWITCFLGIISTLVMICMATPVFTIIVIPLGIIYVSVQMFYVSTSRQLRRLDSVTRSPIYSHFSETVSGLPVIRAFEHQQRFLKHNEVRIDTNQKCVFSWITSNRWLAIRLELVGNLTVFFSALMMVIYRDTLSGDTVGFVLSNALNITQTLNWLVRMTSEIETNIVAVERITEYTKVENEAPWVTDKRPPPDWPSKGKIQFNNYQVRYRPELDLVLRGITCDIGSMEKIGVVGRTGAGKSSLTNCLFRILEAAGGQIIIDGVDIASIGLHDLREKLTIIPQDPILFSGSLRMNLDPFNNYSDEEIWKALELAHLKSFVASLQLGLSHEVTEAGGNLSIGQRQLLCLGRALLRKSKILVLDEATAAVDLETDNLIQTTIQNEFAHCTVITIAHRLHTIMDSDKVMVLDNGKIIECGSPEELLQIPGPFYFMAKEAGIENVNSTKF

CCc1oc2ccccc2c1C(=O)c1cc(Br)c(O)c(Br)c1 [benzbromarone]
inhibition at 100 µM [1]: 90%

O=c1c(O)c(-c2cc(O)c(O)c(O)c2)oc2cc(O)cc(O)c12 [myricetin]
inhibition at 60 µM [2]: 40%

O=C1[O][Pt]2([NH][C@@H]3CCCC[C@H]3[NH]2)[O]C1=O [oxaliplatin]
EC50 [3]: 8.3 ± 0.7 µM
